Assay results: ChEMBL document CHEMBL3132854, “Synthesis and anticancer activity evaluation of resveratrolchalcone conjugates” (2014)

What was measured:
Type in all cases: functional
MDA-MB-231 = assay: Cytotoxicity against human MDA-MB-231 cells by sulforhodamine B assay
MCF7 = assay: Cytotoxicity against human MCF7 cells by sulforhodamine B assay
[1] = Cytotoxicity against human UO31 cells by sulforhodamine B assay
SN12C = assay: Cytotoxicity against human SN12C cells by sulforhodamine B assay
RXF 393 = assay: Cytotoxicity against human RXF393 cells by sulforhodamine B assay
ACHN = assay: Cytotoxicity against human ACHN cells by sulforhodamine B assay
A498 = assay: Cytotoxicity against human A498 cells by sulforhodamine B assay
786-0 = assay: Cytotoxicity against human 786-0 cells by sulforhodamine B assay
OVCAR-8 = assay: Cytotoxicity against human OVCAR8 cells by sulforhodamine B assay
[2] = Cytotoxicity against human OVCAR4 cells by sulforhodamine B assay
IGROV-1 = assay: Cytotoxicity against human IGROV1 cells by sulforhodamine B assay
UACC-62 = assay: Cytotoxicity against human UACC62 cells by sulforhodamine B assay
SK-MEL-5 = assay: Cytotoxicity against human SK-MEL-5 cells by sulforhodamine B assay
SK-MEL-28 = assay: Cytotoxicity against human SK-MEL-28 cells by sulforhodamine B assay
SK-MEL-2 = assay: Cytotoxicity against human SK-MEL-2 cells by sulforhodamine B assay
MDA-MB-435 = assay: Cytotoxicity against human MDA-MB-435 cells by sulforhodamine B assay
M14 = assay: Cytotoxicity against human M14 cells by sulforhodamine B assay
Malme-3M = assay: Cytotoxicity against human MALME-3M cells by sulforhodamine B assay
SF-295 = assay: Cytotoxicity against human SF295 cells by sulforhodamine B assay
SF-268 = assay: Cytotoxicity against human SF268 cells by sulforhodamine B assay
SW-620 = assay: Cytotoxicity against human SW620 cells by sulforhodamine B assay
KM12 = assay: Cytotoxicity against human KM12 cells by sulforhodamine B assay
HT-29 = assay: Cytotoxicity against human HT-29 cells by sulforhodamine B assay
HCT-116 = assay: Cytotoxicity against human HCT116 cells by sulforhodamine B assay
HCC 2998 = assay: Cytotoxicity against human HCC2998 cells by sulforhodamine B assay
COLO 205 = assay: Cytotoxicity against human COLO205 cells by sulforhodamine B assay
NCI-H522 = assay: Cytotoxicity against human NCI-H522 cells by sulforhodamine B assay
NCI-H460 = assay: Cytotoxicity against human NCI-H460 cells by sulforhodamine B assay
NCI-H322M = assay: Cytotoxicity against human NCI-H322M cells by sulforhodamine B assay
NCI-H23 = assay: Cytotoxicity against human NCI-H23 cells by sulforhodamine B assay
NCI-H226 = assay: Cytotoxicity against human NCI-H226 cells by sulforhodamine B assay
HOP-62 = assay: Cytotoxicity against human HOP62 cells by sulforhodamine B assay
RPMI-8226 = assay: Cytotoxicity against human RPMI8226 cells by sulforhodamine B assay
MOLT-4 = assay: Cytotoxicity against human MOLT4 cells by sulforhodamine B assay
K562 = assay: Cytotoxicity against human K562 cells by sulforhodamine B assay
CCRF-CEM = assay: Cytotoxicity against human CCRF-CEM cells by sulforhodamine B assay
HL-60(TB) = assay: Cytotoxicity against human HL-60(TB) cells by sulforhodamine B assay
MDA-MB-468 = assay: Cytotoxicity against human MDA-MB-468 cells by sulforhodamine B assay
T47D = assay: Cytotoxicity against human T47D cells by sulforhodamine B assay
[3] = read-out: LC50 (the source's name)

For `COc1ccc(C(=O)/C=C/c2ccc(/C=C/c3cc(OC)c(OC)c(OC)c3)cc2)cc1`, the GI50 (MDA-MB-231) was 10.2 µM, the TGI (MDA-MB-231) was > 100 µM and the CC50 (MDA-MB-231; [3]) was > 100 µM. The GI50 (MCF7) was 2.18 µM, the TGI (MCF7) was 36.6 µM and the CC50 (MCF7; [3]) was > 100 µM. For the same compound, the GI50 ([1]; UO-31) was 4.64 µM, the TGI ([1]; UO-31) was > 100 µM and the CC50 ([1]; UO-31, read-out: LC50 (the source's name)) was > 100 µM. For the same compound, the GI50 (SN12C) was 9.61 µM, the TGI (SN12C) was > 100 µM and the CC50 (SN12C; [3]) was > 100 µM. For the same compound, the GI50 (RXF 393) was 8.01 µM, the TGI (RXF 393) was 43.6 µM and the CC50 (RXF 393; [3]) was > 100 µM. The GI50 (ACHN) was 11.6 µM, the TGI (ACHN) was > 100 µM and the CC50 (ACHN; [3]) was > 100 µM. The GI50 (A498) was 18.6 µM, the TGI (A498) was > 100 µM and the CC50 (A498; [3]) was > 100 µM. The GI50 (786-0) was 10.4 µM, the TGI (786-0) was 71.1 µM and the CC50 (786-0; [3]) was > 100 µM. The GI50 (OVCAR-8) was 3.76 µM, the TGI (OVCAR-8) was 61.1 µM and the CC50 (OVCAR-8; [3]) was > 100 µM. The GI50 ([2]; OVCAR-4) was 6.31 µM, the TGI ([2]; OVCAR-4) was 47.3 µM and the CC50 ([2]; OVCAR-4, read-out: LC50 (the source's name)) was > 100 µM. For the same compound, the GI50 (IGROV-1) was 9.24 µM, the TGI (IGROV-1) was 76.4 µM and the CC50 (IGROV-1; [3]) was > 100 µM. The GI50 (UACC-62) was 7.13 µM, the TGI (UACC-62) was > 100 µM and the CC50 (UACC-62; [3]) was > 100 µM. The GI50 (SK-MEL-5) was 3.39 µM, the TGI (SK-MEL-5) was 19.2 µM and the CC50 (SK-MEL-5; [3]) was > 100 µM. For the same compound, the GI50 (SK-MEL-28) was 1.69 µM, the TGI (SK-MEL-28) was > 100 µM and the CC50 (SK-MEL-28; [3]) was > 100 µM. The GI50 (SK-MEL-2) was 1.89 µM, the TGI (SK-MEL-2) was > 100 µM and the CC50 (SK-MEL-2; [3]) was > 100 µM. The GI50 (MDA-MB-435) was 4.28 µM, the TGI (MDA-MB-435) was 47.7 µM and the CC50 (MDA-MB-435; [3]) was > 100 µM. For the same compound, the GI50 (M14) was 9.61 µM, the TGI (M14) was > 100 µM and the CC50 (M14; [3]) was > 100 µM. The GI50 (Malme-3M) was 13.2 µM, the TGI (Malme-3M) was > 100 µM and the CC50 (Malme-3M; [3]) was > 100 µM. The GI50 (SF-295) was 9.01 µM, the TGI (SF-295) was > 100 µM and the CC50 (SF-295; [3]) was > 100 µM. The GI50 (SF-268) was 6.08 µM, the TGI (SF-268) was 88.3 µM and the CC50 (SF-268; [3]) was > 100 µM. For the same compound, the GI50 (SW-620) was 4.5 µM, the TGI (SW-620) was > 100 µM and the CC50 (SW-620; [3]) was > 100 µM. For the same compound, the GI50 (KM12) was 3.75 µM, the TGI (KM12) was 83.9 µM and the CC50 (KM12; [3]) was > 100 µM. For the same compound, the GI50 (HT-29) was 4.17 µM, the TGI (HT-29) was > 100 µM and the CC50 (HT-29; [3]) was > 100 µM. For the same compound, the GI50 (HCT-116) was 2.62 µM, the TGI (HCT-116) was > 100 µM and the CC50 (HCT-116; [3]) was > 100 µM. The GI50 (HCC 2998) was 38.4 µM, the TGI (HCC 2998) was > 100 µM and the CC50 (HCC 2998; [3]) was > 100 µM. The GI50 (COLO 205) was 13.7 µM, the TGI (COLO 205) was > 100 µM and the CC50 (COLO 205; [3]) was > 100 µM. The GI50 (NCI-H522) was 3.3 µM, the TGI (NCI-H522) was 30.7 µM and the CC50 (NCI-H522; [3]) was > 100 µM. For the same compound, the GI50 (NCI-H460) was 8.65 µM, the TGI (NCI-H460) was > 100 µM and the CC50 (NCI-H460; [3]) was > 100 µM. For the same compound, the GI50 (NCI-H322M) was 1.98 µM, the TGI (NCI-H322M) was > 100 µM and the CC50 (NCI-H322M; [3]) was > 100 µM. For the same compound, the GI50 (NCI-H23) was 5.39 µM, the TGI (NCI-H23) was 65.9 µM and the CC50 (NCI-H23; [3]) was > 100 µM. The GI50 (NCI-H226) was 3.57 µM, the TGI (NCI-H226) was 22.8 µM and the CC50 (NCI-H226; [3]) was > 100 µM. For the same compound, the GI50 (HOP-62) was 1.28 µM, the TGI (HOP-62) was 63.8 µM and the CC50 (HOP-62; [3]) was > 100 µM. The GI50 (RPMI-8226) was 2.57 µM, the TGI (RPMI-8226) was 8.54 µM and the CC50 (RPMI-8226; [3]) was > 100 µM. The GI50 (MOLT-4) was 3.49 µM, the TGI (MOLT-4) was > 100 µM and the CC50 (MOLT-4; [3]) was > 100 µM. For the same compound, the GI50 (K562) was 3.03 µM, the TGI (K562) was > 100 µM and the CC50 (K562; [3]) was > 100 µM. The GI50 (CCRF-CEM) was 4.15 µM, the TGI (CCRF-CEM) was > 100 µM and the CC50 (CCRF-CEM; [3]) was > 100 µM. The GI50 (HL-60(TB)) was 4.49 µM, the TGI (HL-60(TB)) was > 100 µM and the CC50 (HL-60(TB); [3]) was > 100 µM. For the same compound, the GI50 (MDA-MB-468) was 3.39 µM, the TGI (MDA-MB-468) was 48.7 µM and the CC50 (MDA-MB-468; [3]) was > 100 µM. For the same compound, the GI50 (T47D) was 6.19 µM, the TGI (T47D) was > 100 µM and the CC50 (T47D; [3]) was > 100 µM.
